Results: paper PMC5374619, “The synthetic peptide CIGB-300 modulates CK2-dependent signaling pathways affecting the survival and chemoresistance of non-small cell lung cancer cell lines” (Cancer Cell International, 2017)
pIC50: −log10 of the molar value. Positions of bridges follow the written chain, without caps; N, C: chain ends. Non-standard residues stand in square brackets, D forms with d. Residues, ends and D or L forms follow the SMILES beside them. βAla = NCCC(=O)O

Key:
[1] = system: A549 and A549-cispR cells; assay: Apoptosis, acridine orange/ethidium bromide double staining; assay type: cell-based, human; conditions: 300 μM CIGB-300, 18 h
Experimental: To assess the effect of CIGB-300 or cisplatin on cell viability, 1 × 10^4 cells/well were seeded into 96 well plates in standard culture conditions. Twenty-four hours later cells were treated with different doses of CIGB-300 (25–400 μM) or cisplatin (0.3–30 μM) during 72 h. Cell proliferation was evaluated after 72 h using the MTS assay (Celltiter 96TM Non Radioactive Proliferation Assay, Promega), as described by the manufacturer. Data were analyzed using the R package “ic50” [33] in order to determine the IC50 values for each drug. Alternatively, proliferative potential was determined by assessing cell number. Briefly, cells were seeded onto 35 mm Petri dishes, treated and after 72 h wells were washed twice with PBS, trypsinized, centrifuged, resuspended in a proper volume and finally counted using an hemocytometer and trypan blue exclusion. For apoptosis determination, A549 and A549-cispR cells growing on glass coverslips were treated with 300 μM of CIGB-300 for 18 h and then stained with Acridine orange (10 μg/ml) and Ethidium bromide (10 μg/ml). Visualization was performed with a Nikon, Eclipse E400 epifluorescence microscope. Uniform green nuclei with organized structure were considered as live cells. Bright green or orange to red nuclei were classified as early or late apoptotic cells respectively. […] The percentage of dead cells was determined for each cell line.

β-CATENIN in H125 cells = assay: Western blot of cytoplasmic β-CATENIN; assay type: cell-based, human
Experimental: (§1) For Wnt/β-CATENIN pathway studies, H125 sub-confluent monolayers were first incubated during 24 h with 50% of CM containing the wnt3a factor and then treated for another 6 h with a low-lethal dose of CIGB-300 (IC25) or during 2 h with the CK2 competitive inhibitor TBB (25 μM) as a control. […] For the analysis of NF-κB downstream targets, H125, A549 or A549-Rcisp cells were incubated for 2 h with CIGB-300 (IC50). In the case of Bortezomib, cells were previously pretreated with 8 nM of this drug during 4 h.
(§2) In order to determine β-CATENIN expression levels, cytoplasmic proteins were extracted using saponin buffer. Briefly, monolayer cultures were incubated for 20 min with ice-cold 0.1% saponin lysis buffer (25 mM Hepes, 75 mM potassium acetate and 0.1% saponin plus phosphatase and protease inhibitors). The extraction procedure was carried out twice and the extracts were pooled prior to their centrifugation. For NF-κB detection, nuclear and cytoplasmic proteins were separated by differential centrifugation following Abcam protocol. Briefly, semiconfluent monolayers were washed twice with ice-cold PBS and then collected in 250 μl of Fractionation Buffer (HEPES 20 mM, KCl 10 mM, MgCl2 2 mM, EDTA 1 mM and 2-Mercaptoethanol […]) with protease and phosphatase inhibitors by scrapping with a Teflon scrapper. […]

H125 cells = assay: Cell viability, MTS assay, monolayer; assay type: cell-based, human
Experimental: (§3) We used two human non-small cell lung cancer (NSCLC) derived cell lines: the adenosquamous cell carcinoma NCI-H125 (CRL-5801) and the adenocarcinoma NIH-A549 (CCL-185). The murine L Wnt-3A cell line (CRL-2647) was used in order to produce conditioned media (CM) containing the wnt3a factor, following ATCC’s instructions. All cell lines were obtained from ATCC. H125 was grown in RPMI medium supplemented with 10% FBS and 80 µg/ml gentamycin. A549 and L cells were grown in DMEM media, with the above mentioned supplementation. All cell lines were cultured at 37 °C in a humidified air atmosphere with 5% CO2.
(§4) To assess the effect of CIGB-300 or cisplatin on cell viability, 1 × 10^4 cells/well were seeded into 96 well plates in standard culture conditions. Twenty-four hours later cells were treated with different doses of CIGB-300 (25–400 μM) or cisplatin (0.3–30 μM) during 72 h. Cell proliferation was evaluated after 72 h using the MTS assay (Celltiter 96TM Non Radioactive Proliferation Assay, Promega), as described by the manufacturer. Data were analyzed using the R package “ic50” [33] in order to determine the IC50 values for each drug. Alternatively, proliferative potential was determined by assessing cell number. Briefly, cells were seeded onto 35 mm Petri dishes, treated and after 72 h wells were washed twice with PBS, trypsinized, centrifuged, resuspended in a proper volume and finally counted using an hemocytometer and trypan blue exclusion. For apoptosis determination, A549 and A549-cispR cells growing on glass coverslips were treated with 300 μM of CIGB-300 for 18 h and then stained with Acridine orange (10 μg/ml) and Ethidium bromide (10 μg/ml). Visualization was performed with a Nikon, Eclipse E400 epifluorescence microscope. Uniform green nuclei with organized structure were considered as live cells. Bright green or orange to red nuclei were classified as early or late apoptotic cells respectively. Uniformly orange to red nuclei with organized structure were ascribed as necrotic cells. The percentage of dead cells was determined for each cell line.

A549 cells = assay: Cell viability, MTS assay, monolayer; assay type: cell-based, human; conditions: dose selected from the viability results
Experimental: as §3, §4

H125 spheroids = assay: 3D growth inhibition assay, multicellular tumor spheroids; assay type: cell-based, human; conditions: IC25 and IC50 doses of monolayers, after 5 days of treatment, medium replaced every 48 h
[2] = up to 40 mg/kg/day intravenously; cited from earlier work
[3] = system: NF-κB p65/relA in H125 cells; assay: Western blot of nuclear p65/RelA; assay type: cell-based, human; conditions: H125, low-lethal dose (IC25), Western blot of nuclear extracts, with or without PMA
Experimental: as §1, §2

proteasome in H125 cells = assay: Proteasome-Glo Chymotrypsin-Like Cell-Based Assay; set-up: species or system human; conditions: H125, CIGB-300 30 min, luminescence
Experimental: Proteasome activity was assessed in H125 cells using the Proteasome-Glo Chymotrypsin-Like Cell-Based Assay (Promega) following manufacturer’s instructions. Briefly, H125 cells were plated onto 96-well plates and 24 h later treated with CIGB-300 (30 min) or with Bortezomib (4 h). Briefly: 100 µl of Proteasome-Glo™ Cell-Based Reagent were added to each 100 µl of sample and incubated at RT for 10 min. Luminescence emission was measured with a Multimode Microplate Reader, Synergy luminometer (Biotek).

[4] = target: T1, α7/C8 (PSMA3) in H125 cells (Homo sapiens, UniProt P25788); assay: Confocal immunofluorescence, co-occurrence with α7/C8; assay type: cell-based; conditions: H125, biotin-conjugated CIGB-300 30 min, cells with cytoplasmic signal, Manders coefficient
T1 construct: endogenous in cells; host or cells: H125 (NCI-H125) human NSCLC cells
Experimental: H125 cells growing on glass coverslips were treated with biotin-conjugated CIGB-300 for 30 min, washed twice with PBS, fixed in ice cold paraformaldehyde, permeabilized and blocked with PBS containing 5% bovine serum albumin for 1 h at RT. α7/C8 protein was detected by incubation with a specific primary antibody diluted in PBS containing 5% BSA, followed by an incubation with a secondary antibody coupled to Alexa 647 and with Streptavidin-FITC conjugated for 1 h at RT. Nuclei were stained with DAPI. Images were obtained in a LSM 510 Meta confocal Zeiss microscope. Confocal images were processed for presentation with ImageJ. Background of each channel was subtracted. Pearson’s and Mander’s coefficients were calculated using the JACoP plugin [38]. Single cell analysis for 15–20 representative cells was performed on three independent experiments.

[5] = 24 h post intravenous injection; cited from earlier work
[6] = system: NF-κB-RE-luc in H125 cells; assay: NF-κB-dependent reporter gene expression; assay type: cell-based, human; conditions: H125, PMA 16 nM 6 h, CIGB-300 IC25 during first hour, dual luciferase
Experimental: H125 cells were transiently co-transfected with NF-κB-RE-luc Luciferase Reporter Vector pGL4.32 and the Renilla Luciferase Control Reporter Vector pRL-TK (Promega, Madison, WI) in a 10:1 ratio, using Fugene (Promega) following manufacturer’s instructions. Briefly, 1 × 10^5 cells/well were seeded onto 24-well plates and transfected the next day. Six hours after adding transfection reagents, cells were washed and complete media was added. After an overnight recovery, cells were treated for 6 h with PMA (16 nM), in presence or not of CIGB-300 (IC25) during the first hour. Finally cells were lysed and the luciferase activities were determined using the Dual-Luciferase Reporter Assay System (Promega) and normalized to the constitutive Renilla luciferase activity.

[7] = system: A549 and A549-cispR cells; assay: Viability by cell number after cisplatin; assay type: cell-based, human; conditions: cell number 72 h after cisplatin, untreated set as 100%
Excerpt: Parental A549 cells were maintained in culture during the same period.

| Structure (SMILES) | number of dead cells on A549-cispR vs A549 [1] | β-CATENIN cytoplasmic accumulation with active Wnt pathway (β-CATENIN in H125 cells; H125, 24 h 50% CM with wnt3a, then CIGB-300 IC25 6 h or TBB 25 μM 2 h) | basal levels of cytoplasmic β-CATENIN (β-CATENIN in H125 cells; H125, low-lethal dose CIGB-300 6 h, no wnt3a) | IC25 (low-lethal dose) (H125 cells; dose selected from the viability results) [µM] | IC25 (low-lethal dose) (A549 cells) [µM] | volume of treated spheroids compared with untreated controls (H125 spheroids) | tolerability of high doses [2] | nuclear levels of p65/relA [3] | proteasomal activity (proteasome in H125 cells) | α7/C8 coincident with CIGB-300 presence [4] | peptide uptake at tumor site [5] | NF-κB transcriptional response [6] | pIC50 (H125 cells; MTS assay, 72 h treatment, R package ic50, three independent experiments) | viability of A549-cispR relative to parental A549 after cisplatin treatment [7] |
| --- | --- | --- | --- | --- | --- | --- | --- | --- | --- | --- | --- | --- | --- | --- |
| CSCC[C@@H]1NC(=O)[C@H](Cc2c[nH]c3ccccc23)NC(=O)[C@@H](NC(=O)CCNC(=O)[C@H](CCC(N)=O)NC(=O)[C@@H]2CCCN2C(=O)[C@@H]2CCCN2C(=O)[C@H](CCCNC(=N)N)NC(=O)[C@H](CCCNC(=N)N)NC(=O)[C@H](CCCNC(=N)N)NC(=O)[C@H](CCC(N)=O)NC(=O)[C@H](CCCNC(=N)N)NC(=O)[C@H](CCCNC(=N)N)NC(=O)[C@H](CCCCN)NC(=O)[C@H](CCCCN)NC(=O)[C@H](CCCNC(=N)N)NC(=O)CN)CSSC[C@@H](C(=O)O)NC(=O)[C@H]([C@@H](C)O)NC(=O)CNC(=O)[C@H](CC(C)C)NC(=O)[C@H](Cc2c[nH]cn2)NC(=O)[C@H](CCCNC(=N)N)NC(=O)[C@@H]2CCCN2C(=O)[C@H](CO)NC1=O [CIGB-300] (H-GRKKRRQRRRPPQ[βAla]CWMSPRHLGTC-OH; disulfide 15-25; N-terminus and C-terminus assumed) | significantly increased | partially reverted | not reduced | 60 | 150 | significantly lower | safe, well tolerated and non-toxic | reduced the nuclear levels | increased proteasomal activity | More than 80% | up to 1.5% | decreased NF-κB transcriptional response |  |  |
| N.N.[Cl][Pt][Cl] [cisplatin, cisdiammine-dichloro-platinum, reference compound] |  |  |  |  |  |  |  |  |  |  |  |  | 6.00 | twofold higher |
